Results: patent US20230133958A1, “COMPOUNDS USEFUL IN MODULATING EGFR AND PI3K” (Mekanistic Therapeutics LLC, priority 2021, published 2023)

Legend:
EGFR = EGFR (Homo sapiens, UniProt P00533); experiment: Z'-LYTE / Adapta biochemical kinase assay, EGFR; details: for inhibition at 0.1 µM: concentration of 100 nM/liter, read-out: Percent Inhibition of target enzymes, EGFR
From the text: The Z′-LYTE® biochemical assay employs a fluorescence-based, coupled-enzyme format and is based on the differential sensitivity of phosphorylated and non-phosphorylated peptides to proteolytic cleavage. The peptide substrate is labeled with two fluorophores—one at each end—that make up a FRET pair. In the primary reaction, the kinase transfers the gamma-phosphate of ATP to a single tyrosine, serine or threonine residue in a synthetic FRET-peptide. In the secondary reaction, a site-specific protease recognizes and cleaves non-phosphorylated FRET-peptides. Phosphorylation of FRET-peptides suppresses cleavage by the Development Reagent. Cleavage disrupts FRET between the donor (i.e., coumarin) and acceptor (i.e., fluorescein) fluorophores on the FRET-peptide, whereas uncleaved, phosphorylated FRET-peptides maintain FRET. A ratiometric method, which calculates the ratio (the Emission Ratio) of donor emission to acceptor emission after excitation of the donor fluorophore at 400 nm, is used to quantitate reaction progress.
A significant benefit of this ratiometric method for quantitating reaction progress is the elimination of well-to-well variations in FRET-peptide concentration and signal intensities. As a result, the assay yields very high Z′-factor values (>0.7) at a low percent phosphorylation.
Both cleaved and uncleaved FRET-peptides contribute to the fluorescence signals and therefore to the Emission Ratio. The extent of phosphorylation of the FRET-peptide can be calculated from the Emission Ratio. The Emission Ratio will remain low if the FRET-peptide is phosphorylated (i.e., no kinase inhibition) and will be high if the FRET-peptide is non-phosphorylated (i.e., kinase inhibition).
Enzyme: The ADAPTA universal kinase assay is a homogenous, fluorescent based immunoassay for the detection of ADP. In contrast to ATP depletion assays, the ADAPTA assay is extremely sensitive to ADP formation such that a majority of the signal change occurs in the first 10-20% conversion of ATP to ADP. This makes the ADAPTA universal kinase assay ideally suited for use with low activity kinases.
The principle of the ADAPTA universal kinase assay is outlined below. The assay itself can be divided into two phases: a kinase reaction phase, and an ADP detection phase. In the kinase reaction phase, all components required for the kinase reaction are added to the well, and the reaction is allowed to incubate for 60 minutes. After the reaction, a detection solution consisting of a europium labeled anti-ADP antibody, an Alexa Fluor® 647 labeled ADP tracer, and EDTA (to stop the kinase reaction) is added to the assay well. ADP formed by the kinase reaction (in the absence of an inhibitor) will displace the Alexa Fluor® 647 labeled ADP tracer from the antibody, resulting in a decrease in the TR-FRET signal. In the presence of an inhibitor, the amount of ADP formed by the kinase reaction is reduced, and the resulting intact antibody-tracer interaction results in a high TR-FRET signal.
Test Compounds: The Test Compounds are screened in 1% DMSO (final) in the well. For 10 point titrations, 3-fold serial dilutions are conducted from the starting concentration of the customer’s choosing.
Peptide/Kinase Mixtures: All Peptide/Kinase Mixtures are diluted to a 2X working concentration in the appropriate Kinase Buffer.
ATP Solution: All ATP Solutions are diluted to a 4X working concentration in Kinase Buffer (50 mM HEPES pH 7.5, 0.01% BRIJ-35, 10 mM MgCl2,1 mM EGTA). ATP Km apparent is previously determined using a Z′-LYTE® assay.
Development Reagent Solution: The Development Reagent is diluted in Development Buffer.
Assay Protocol: Bar-coded Corning, low volume NBS, black 384-wellplate (Corning Cat. #4514) 1. 2.5 µL - 4X Test Compound or 100 nL 100X plus 2.4 µL kinase buffer. 2. 5 µL - 2X Peptide/Kinase Mixture. 3. 2.5 µL - 4X ATP Solution. 4. 30-second plate shake. 5. 60-minute Kinase Reaction incubation at room temperature. 6. 5 µL - Development Reagent Solution. 7. […]

SNB-19 = experiment: NCI COMPARE panel (SRB growth inhibition), SNB-19; assay type: cell-based; details: Homo sapiens; CNS Cancer, SNB-19, 48 h
Procedure: (§1) The human tumor cell lines of the cancer screening panel are grown in RPMI 1640 medium containing 5% fetal bovine serum and 2 mM L-glutamine. For a typical screening experiment, cells are inoculated into 96 well microtiter plates in 100 µL at plating densities ranging from 5,000 to 40,000 cells/well depending on the doubling time of individual cell lines. After cell inoculation, the microtiter plates are incubated at 37° C., 5% CO2, 95% air and 100% relative humidity for 24 h prior to addition of experimental drugs.
(§2) After 24 h, two plates of each cell line are fixed in situ with TCA, to represent a measurement of the cell population for each cell line at the time of drug addition (Tz). Experimental drugs are solubilized in dimethyl sulfoxide at 400-fold the desired final maximum test concentration and stored frozen prior to use. […]
(§3) Following drug addition, the plates are incubated for an additional 48 h at 37° C., 5 % CO2, 95% air, and 100% relative humidity. […] Bound stain is subsequently solubilized with 10 mM trizma base, and the absorbance is read on an automated plate reader at a wavelength of 515 nm. […] Using the seven absorbance measurements [time zero, (Tz), control growth, (C), and test growth in the presence of drug at the five concentration levels (Ti)], the percentage growth is calculated at each of the drug concentrations levels. Percentage growth inhibition is calculated as: […]

COLO 205 = experiment: NCI COMPARE panel (SRB growth inhibition), COLO 205; assay type: cell-based; details: Homo sapiens; Colon Cancer, COLO 205, 48 h
Procedure: as §1, §2, §3

EKVX = experiment: NCI COMPARE panel (SRB growth inhibition), EKVX; assay type: cell-based; details: Homo sapiens, Non-Small Cell Lung Cancer, 48 h
Procedure: as §1, §2, §3

EGFR, sequence (P00533 25-1210): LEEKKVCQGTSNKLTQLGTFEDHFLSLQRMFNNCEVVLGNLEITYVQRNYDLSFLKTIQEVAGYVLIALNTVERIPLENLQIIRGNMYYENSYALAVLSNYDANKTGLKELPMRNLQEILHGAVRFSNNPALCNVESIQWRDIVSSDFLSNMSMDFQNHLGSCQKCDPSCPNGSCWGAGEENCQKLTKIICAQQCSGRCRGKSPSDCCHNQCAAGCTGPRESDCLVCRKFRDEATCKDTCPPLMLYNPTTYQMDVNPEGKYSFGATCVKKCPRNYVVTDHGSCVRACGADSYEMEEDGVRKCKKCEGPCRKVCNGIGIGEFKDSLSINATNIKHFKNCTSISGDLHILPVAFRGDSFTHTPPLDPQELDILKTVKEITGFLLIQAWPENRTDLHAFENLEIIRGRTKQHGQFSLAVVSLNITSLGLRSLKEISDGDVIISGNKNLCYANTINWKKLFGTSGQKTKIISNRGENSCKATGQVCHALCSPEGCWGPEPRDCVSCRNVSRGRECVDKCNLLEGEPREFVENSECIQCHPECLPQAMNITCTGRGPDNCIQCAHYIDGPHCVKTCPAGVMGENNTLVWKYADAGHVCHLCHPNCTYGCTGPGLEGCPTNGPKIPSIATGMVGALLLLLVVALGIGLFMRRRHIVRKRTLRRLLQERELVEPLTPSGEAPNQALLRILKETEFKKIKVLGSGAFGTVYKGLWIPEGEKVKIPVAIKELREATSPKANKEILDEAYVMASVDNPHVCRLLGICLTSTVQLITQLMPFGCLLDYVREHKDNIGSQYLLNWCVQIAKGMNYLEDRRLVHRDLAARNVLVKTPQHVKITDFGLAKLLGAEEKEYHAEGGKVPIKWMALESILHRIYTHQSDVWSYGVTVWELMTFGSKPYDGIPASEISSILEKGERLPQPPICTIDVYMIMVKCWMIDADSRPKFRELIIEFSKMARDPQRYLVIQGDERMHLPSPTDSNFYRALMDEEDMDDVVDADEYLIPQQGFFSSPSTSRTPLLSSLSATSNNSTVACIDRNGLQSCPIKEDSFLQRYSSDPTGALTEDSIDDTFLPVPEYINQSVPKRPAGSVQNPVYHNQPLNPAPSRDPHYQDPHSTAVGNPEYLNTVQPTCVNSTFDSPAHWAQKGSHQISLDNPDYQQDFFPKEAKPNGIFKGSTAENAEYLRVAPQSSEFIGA

CS(=O)(=O)Nc1cc(-c2ccc3ncnc(Nc4cccc(Cl)c4F)c3c2)cnc1Cl [Compound 6, N-[2-chloro-5-[4-(3-chloro-2-fluoro-anilino)quinazolin-6-yl]-3-pyridyl] methanesulfonamide]
IC50 (EGFR; EGFR): ≤ 2 nM | inhibition at 0.1 µM (EGFR): > 90% | GI50 (SNB-19): 125 to 250 nM | GI50 (COLO 205): 125 to 250 nM | GI50 (EKVX): 75 to 125 nM

CS(=O)(=O)Nc1cc(-c2ccc3ncc(C#N)c(Nc4cccc(Cl)c4F)c3c2)cnc1Cl [Compound 10, N-[2-chloro-5-[4-(3-chloro-2-fluoro-anilino)-3-cyano-6-quinolyl]-3-pyridyl]methanesulfonamide]
inhibition at 0.1 µM (EGFR): > 90% | GI50 (SNB-19): 125 to 250 nM | GI50 (COLO 205): 125 to 250 nM | GI50 (EKVX): > 250 nM
